From US20250289787A1, “HERBICIDAL 2-OXO-NICOTINIC ACID DERIVATIVES” (SYNGENTA CROP PROTECTION AG, priority 2022, published 2025)

Tests used:
Assay type in all cases: in vivo
Set-up in all cases: key: 5=81-100%; 4=61-80%; 3=41-60%; 2=21-40%; 1=1-20%; 0=no damage to the plant; -=not tested
[1] = tested on: Amaranthus retoflexus (AMARE); assay: Pre-emergence test, herbicidal damage; conditions: 1000 g/ha unless otherwise stated, evaluated after 13 days, five-point scale
[2] = tested on: Amaranthus palmeri (AMAPA); assay: Pre-emergence test, herbicidal damage; conditions: 1000 g/ha unless otherwise stated, evaluated after 13 days, five-point scale
[3] = tested on: Zea mays (ZEAMX); assay: Post-emergence test, herbicidal damage; conditions: sprayed after 8 days cultivation, 1000 g/ha unless otherwise stated, evaluated after 13 days, five-point scale
Method in brief: (§1)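 Seeds are sown in standard soil under controlled glasshouse conditions (24 °C day, 16 °C night, 14 h light, 65% humidity) and sprayed with compound at 1000 g/ha in aqueous acetone containing 0.5% Tween 20. Thirteen days later, percentage damage is rated on a 0–5 scale.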

[4] = tested on: Amaranthus palmeri (AMAPA); assay: Post-emergence test, herbicidal damage; conditions: sprayed after 8 days cultivation, 1000 g/ha unless otherwise stated, evaluated after 13 days, five-point scale
Method in brief: as §1

[5] = tested on: Ipomoea hederacea (IPOHE); assay: Post-emergence test, herbicidal damage; conditions: sprayed after 8 days cultivation, 1000 g/ha unless otherwise stated, evaluated after 13 days, five-point scale
Method in brief: as §1

[6] = tested on: Amaranthus retoflexus (AMARE); assay: Post-emergence test, herbicidal damage; conditions: sprayed after 8 days cultivation, 1000 g/ha unless otherwise stated, evaluated after 13 days, five-point scale
Method in brief: as §1

[7] = tested on: Echinochloa crus-galli (ECHCG); assay: Post-emergence test, herbicidal damage; conditions: sprayed after 8 days cultivation, 1000 g/ha unless otherwise stated, evaluated after 13 days, five-point scale
Method in brief: as §1

[8] = tested on: Setaria faberi (SETFA); assay: Post-emergence test, herbicidal damage; conditions: sprayed after 8 days cultivation, 1000 g/ha unless otherwise stated, evaluated after 13 days, five-point scale
Method in brief: as §1

[9] = tested on: Echinochloa crus-galli (ECHCG); assay: Pre-emergence test, herbicidal damage; conditions: 1000 g/ha unless otherwise stated, evaluated after 13 days, five-point scale
[10] = tested on: Ipomoea hederacea (IPOHE); assay: Pre-emergence test, herbicidal damage; conditions: 1000 g/ha unless otherwise stated, evaluated after 13 days, five-point scale
[11] = tested on: Setaria faberi (SETFA); assay: Pre-emergence test, herbicidal damage; conditions: 1000 g/ha unless otherwise stated, evaluated after 13 days, five-point scale
[12] = tested on: Zea mays (ZEAMX); assay: Pre-emergence test, herbicidal damage; conditions: 1000 g/ha unless otherwise stated, evaluated after 13 days, five-point scale

Row | SMILES | percentage damage caused to the plant, AMARE [1] | percentage damage caused to the plant, AMAPA [2] | percentage damage caused to the plant, ZEAMX [3] | percentage damage caused to the plant, AMAPA [4] | percentage damage caused to the plant, IPOHE [5] | percentage damage caused to the plant, AMARE [6] | percentage damage caused to the plant, ECHCG [7] | percentage damage caused to the plant, SEFTA [8] | percentage damage caused to the plant, ECHCG [9] | percentage damage caused to the plant, IPOHE [10] | percentage damage caused to the plant, SEFTA [11] | percentage damage caused to the plant, ZEAMX [12]
1 | Cc1c(-c2ccc(Cl)c(Cl)c2)c(C(=O)O)c(=O)n(C)c1C [Compound 12, 4-(3,4-dichlorophenyl)-1,5,6-trimethyl-2-oxo-pyridine-3-carboxylic acid] | 0 | 1 (1=1-20%) | 0 | 2 (2=21-40%) | 1 (1=1-20%) | 1 (1=1-20%) | 1 (1=1-20%) | 1 (1=1-20%) | 1 (1=1-20%) | 0 | 2 (2=21-40%) | 0
2 | Cc1c(O)c(-c2ccc(Cl)c(Cl)c2)c(C(=O)O)c(=O)n1-c1ccc(Cl)cc1F [Compound 42, 1-(4-chloro-2-fluoro-phenyl)-4-(3,4-dichlorophenyl)-5-hydroxy-6-methyl-2-oxo-pyridine-3-carboxylic acid] | 2 (2=21-40%) | 2 (2=21-40%) | 0 | 2 (2=21-40%) | 1 (1=1-20%) | 2 (2=21-40%) | 0 | 0 | 1 (1=1-20%) | 0 | 0 | 0
3 | Cc1[nH]c(=O)c(C(=O)O)c(-c2ccc(Cl)c(Cl)c2)c1C#N [Compound 11, 5-cyano-4-(3,4-dichlorophenyl)-6-methyl-2-oxo-1H-pyridine-3-carboxylic acid] | 0 | 0 | 0 | 0 | 0 | 0 | 0 | 0 | 0 | 0 | 0 | 0
4 | CCc1c(C)[nH]c(=O)c(C(=O)O)c1-c1ccc(Cl)c(Cl)c1 [Compound 10, 4-(3,4-dichlorophenyl)-5-ethyl-6-methyl-2-oxo-1H-pyridine-3-carboxylic acid] | 0 | 0 | 0 | 0 | 0 | 0 | 0 | 0 | 0 | 0 | 0 | 0
5 | COCc1c(-c2ccc(Cl)c(Cl)c2)c(C(=O)O)c(=O)n(-c2ccc(F)cc2F)c1C [Compound 36, 4-(3,4-dichlorophenyl)-1-(2,4-difluorophenyl)-5-(methoxymethyl)-6-methyl-2-oxo-pyridine-3-carboxylic acid] | 2 (2=21-40%) | 2 (2=21-40%) | 0 | 2 (2=21-40%) | 1 (1=1-20%) | 2 (2=21-40%) | 0 | 1 (1=1-20%) | 1 (1=1-20%) | 1 (1=1-20%) | 0 | 0
6 | Cc1cc(-c2ccc(Cl)c(Cl)c2)c(C(=O)O)c(=O)n1Cc1ccc(Cl)cc1F [Compound 22, 1-[(4-chloro-2-fluoro-phenyl)methyl]-4-(3,4-dichlorophenyl)-6-methyl-2-oxo-pyridine-3-carboxylic acid] | 1 (1=1-20%) | 1 (1=1-20%) | 1 (1=1-20%) | 3 (3=41-60%) | 1 (1=1-20%) | 3 (3=41-60%) | 0 | 1 (1=1-20%) | 1 (1=1-20%) | 0 | 1 (1=1-20%) | 1 (1=1-20%)
7 | Cc1cc(-c2ccc(Cl)c(Cl)c2)c(C(=O)O)c(=O)n1-c1ncc(Cl)cc1F [Compound 18, 1-(5-chloro-3-fluoro-2-pyridyl)-4-(3,4-dichlorophenyl)-6-methyl-2-oxo-pyridine-3-carboxylic acid] | 0 | 0 | 1 (1=1-20%) | 1 (1=1-20%) | 1 (1=1-20%) | 0 | 1 (1=1-20%) | 0 | 0 | 0 | 0 | 0
